Measurements reported in PubChem BioAssay AID1963978 (Molecular Pharmacology Branch, DTP, NCI, 2024).

Test system: 616215-338-R-J1-PDC spheroids with HUVEC/MSC, viability
Experiment: Anticancer human tumor 616215-338-R-J1-PDC patient-derived colon adenocarcinoma cell line growth inhibition [PI3K]
Conditions: for IC50: curve of first compound; for viability, T/C: stronger effect = lower value; active = viability on the fitted dose curve at most 10% of control; inactive = the rest
Source text: Combinatorial screen of targeted agents with the PI3K inhibitors inavolisib, alpelisib, duvelisib, and copanlisib in multi-cell type tumor spheroids
A high-throughput screen of multi-cell type tumor spheroids was designed to identify active combinations of targeted small molecules and PI3K pathway inhibitors. Complex spheroids include a stromal component modeled by human endothelial cells (HUVEC) and fibroblasts modeled by human mesenchymal stem cells (MSCs). The concentration ranges selected for each drug and investigational agent were based upon clinically achievable concentrations if the clinical Cmax of the agent was known.
Compounds. The drugs and investigational agents: inavolisib (NSC800729), alpelisib (NSC765974), duvelisib (NSC772469), copanlisib (NSC816437), ipatasertib (NSC767898), afuresertib (NSC778305), talazoparib (NSC767125), sapanisertib (NSC764658), selumetinib (NSC741078), tovorafenib (DAY101, NSC766906), vemurafenib (NSC761431), ravoxertinib (NSC781343), sotorasib (NSC818433), MRTX1133 (NSC 836407), abemaciclib (NSC 768073), palbociclib (NSC758247), venetoclax (NSC 766270), SY5609 (NSC837396), enzalutamide (NSC755605), and darolutamide (NSC825331), were obtained from the National Cancer Institute (NCI) Developmental Therapeutics Program Chemical Repository. The FDA-approved anticancer drug set is available from the NCI Developmental Therapeutics Program. […] The stock solutions were prepared in dimethyl sulfoxide (DMSO, Sigma-Aldrich, St. Louis, MO, cat. D2650) at 800-fold the tested concentration and stored at -70 degrees C prior to their use. All drugs and investigational agents were tested over a range starting from a high concentration at or near the clinical Cmax and decreasing in half-log increments. If the clinical Cmax for an agent had not been determined, the highest concentration tested was 10 microM.
Cell Culture. All cells were maintained in an incubator at 37 degrees C and 5% CO2 with 95% humidity. The PDC lines were cultured according to standard operating procedures established by the NCI PDMR (https://pdmr.cancer.gov/sops/default.htm). All PDCs were thawed and cultured in Matrigel-coated flasks prepared with a working solution of 1X Ham's F-12 nutrient mix, without supplementation (Invitrogen, Waltham, MA, cat. 11765054), 100 U/mL penicillin-streptomycin (Invitrogen, cat. 15140122), and 2.5% Matrigel (Corning Inc., Corning, NY, cat. 354248) for the first three passages. The 354836-022-R-J1-PDC, 475296-252-R-J1-PDC, and 997726-040-R-J2-PDC lines were cultured in 6A media, which includes advanced DMEM/F-12 (Thermo Fisher Scientific, cat. 12634028), 10 mM HEPES (Thermo Fisher Scientific, cat. 15630080), 1X GlutaMAX supplement (Thermo Fisher Scientific, cat. 35050061), 0.1 mg/mL primocin (InvivoGen, San Diego, CA, cat. ant-pm-2), 10% defined fetal bovine serum, heat inactivated (HyClone Laboratories Inc., Logan, UT, cat. SH30070.03HI), 50% L-WRN conditioned media (ATCC, cat. CRL-3276), 1.25 mM N-Acetyl-L-cysteine (Sigma-Aldrich, cat. A9165), 10 mM nicotinamide (Sigma-Aldrich, cat. N0636), 1X B-27 supplement (Thermo Fisher Scientific, cat. 17504044), 1X N-2 supplement (Thermo Fisher Scientific, cat. 17502048), and 10 microM Y-27632 dihydrochloride (Tocris Bioscience, Bristol, United Kingdom, cat. 1254). The 624824-186-R-J2-PDC line was cultured in 6C/Colon 1B media, which includes all 6A media components plus 50 ng/mL human EGF recombinant protein (Thermo Fisher Scientific, cat. PHG0311). […]

[1] = second compound 0.00316 µM, first compound 0.0316 µM
[2] = second compound 0.00316 µM, first compound 0.1 µM
[3] = second compound 0.01 µM, first compound 0.0316 µM
[4] = second compound 0.01 µM, first compound 0.1 µM
[5] = second compound 0.0316 µM, first compound 0.0316 µM
[6] = second compound 0.0316 µM, first compound 0.1 µM
[7] = second compound 0.1 µM, first compound 0.0316 µM
[8] = second compound 0.1 µM, first compound 0.1 µM
[9] = second compound 0.316 µM, first compound 0.0316 µM
[10] = second compound 0.316 µM, first compound 0.1 µM
[11] = second compound 1 µM, first compound 0.0316 µM
[12] = second compound 1 µM, first compound 0.1 µM
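Also: spheroids exposed to agents for seven days before the viability read.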

CC(C)NCC(C(=O)N1CCN(c2ncnc3c2C(C)CC3O)CC1)c1ccc(Cl)cc1 (centres undefined) + CC(Nc1ccc2c(c1)OCCn1cc(N3C(=O)OCC3C(F)F)nc1-2)C(N)=O
3.76 µM: IC50 (second compound 1 µM)
5.98 µM: IC50 (second compound 0.0316 µM)
5.88 µM: IC50 (second compound 0.01 µM)
4.99 µM: IC50 (second compound 0.1 µM)
6.44 µM: IC50 (second compound 0.00316 µM)
5.13 µM: IC50 (second compound 0.316 µM)
inactive: viability, T/C [1] 86.5% | viability, T/C [2] 95.8% | viability, T/C (second compound 0.00316 µM, first compound 0.316 µM) 95.8% | viability, T/C (second compound 0.00316 µM, first compound 1 µM) 98.2% | viability, T/C (second compound 0.00316 µM, first compound 3.16 µM) 69.9% | viability, T/C (second compound 0.00316 µM, first compound 10 µM) 37.7% | viability, T/C [3] 88.5% | viability, T/C [4] 102% | viability, T/C (second compound 0.01 µM, first compound 0.316 µM) 90.4% | viability, T/C (second compound 0.01 µM, first compound 1 µM) 110% | viability, T/C (second compound 0.01 µM, first compound 3.16 µM) 70% | viability, T/C (second compound 0.01 µM, first compound 10 µM) 32.9% | viability, T/C [5] 97.7% | viability, T/C [6] 104% | viability, T/C (second compound 0.0316 µM, first compound 0.316 µM) 98% | viability, T/C (second compound 0.0316 µM, first compound 1 µM) 98.1% | viability, T/C (second compound 0.0316 µM, first compound 3.16 µM) 65.8% | viability, T/C (second compound 0.0316 µM, first compound 10 µM) 37.2% | viability, T/C [7] 95% | viability, T/C [8] 94.6% | viability, T/C (second compound 0.1 µM, first compound 0.316 µM) 95% | viability, T/C (second compound 0.1 µM, first compound 1 µM) 93.6% | viability, T/C (second compound 0.1 µM, first compound 3.16 µM) 65.7% | viability, T/C (second compound 0.1 µM, first compound 10 µM) 26.1% | viability, T/C [9] 110% | viability, T/C [10] 99.9% | viability, T/C (second compound 0.316 µM, first compound 0.316 µM) 95.5% | viability, T/C (second compound 0.316 µM, first compound 1 µM) 103% | viability, T/C (second compound 0.316 µM, first compound 3.16 µM) 65.9% | viability, T/C (second compound 0.316 µM, first compound 10 µM) 28% | viability, T/C [11] 106% | viability, T/C [12] 95.5% | viability, T/C (second compound 1 µM, first compound 0.316 µM) 105% | viability, T/C (second compound 1 µM, first compound 1 µM) 88.9% | viability, T/C (second compound 1 µM, first compound 3.16 µM) 54% | viability, T/C (second compound 1 µM, first compound 10 µM) 29.3%

Cn1ncnc1[C@H]1c2n[nH]c(=O)c3cc(F)cc(c23)N[C@@H]1c1ccc(F)cc1 + CC(Nc1ccc2c(c1)OCCn1cc(N3C(=O)OCC3C(F)F)nc1-2)C(N)=O
> 0.1 µM: IC50 (second compound 0.00316 µM) | IC50 (second compound 0.01 µM) | IC50 (second compound 0.0316 µM) | IC50 (second compound 0.1 µM) | IC50 (second compound 0.316 µM) | IC50 (second compound 1 µM)
inactive: viability, T/C (second compound 0.00316 µM, first compound 0.000316 µM) 100% | viability, T/C (second compound 0.00316 µM, first compound 0.001 µM) 90.8% | viability, T/C (second compound 0.00316 µM, first compound 0.00316 µM) 98.3% | viability, T/C (second compound 0.00316 µM, first compound 0.01 µM) 103% | viability, T/C [1] 88.8% | viability, T/C [2] 98.4% | viability, T/C (second compound 0.01 µM, first compound 0.000316 µM) 85.9% | viability, T/C (second compound 0.01 µM, first compound 0.001 µM) 90.6% | viability, T/C (second compound 0.01 µM, first compound 0.00316 µM) 91.8% | viability, T/C (second compound 0.01 µM, first compound 0.01 µM) 84% | viability, T/C [3] 101% | viability, T/C [4] 90.5% | viability, T/C (second compound 0.0316 µM, first compound 0.000316 µM) 102% | viability, T/C (second compound 0.0316 µM, first compound 0.001 µM) 92.7% | viability, T/C (second compound 0.0316 µM, first compound 0.00316 µM) 89.8% | viability, T/C (second compound 0.0316 µM, first compound 0.01 µM) 97.6% | viability, T/C [5] 98.5% | viability, T/C [6] 93.2% | viability, T/C (second compound 0.1 µM, first compound 0.000316 µM) 97.1% | viability, T/C (second compound 0.1 µM, first compound 0.001 µM) 92.4% | viability, T/C (second compound 0.1 µM, first compound 0.00316 µM) 104% | viability, T/C (second compound 0.1 µM, first compound 0.01 µM) 103% | viability, T/C [7] 94.8% | viability, T/C [8] 88.9% | viability, T/C (second compound 0.316 µM, first compound 0.000316 µM) 112% | viability, T/C (second compound 0.316 µM, first compound 0.001 µM) 90.6% | viability, T/C (second compound 0.316 µM, first compound 0.00316 µM) 93.5% | viability, T/C (second compound 0.316 µM, first compound 0.01 µM) 99.4% | viability, T/C [9] 90% | viability, T/C [10] 88.7% | viability, T/C (second compound 1 µM, first compound 0.000316 µM) 96.2% | viability, T/C (second compound 1 µM, first compound 0.001 µM) 99.3% | viability, T/C (second compound 1 µM, first compound 0.00316 µM) 116% | viability, T/C (second compound 1 µM, first compound 0.01 µM) 89.6% | viability, T/C [11] 87.7% | viability, T/C [12] 76.2%
